Consider 21 molecules from patent US9918990B2, “Substituted pyrrolo[2,3-c]pyridines and pyrazolo[3,4-c]pyridines as BET protein inhibitors” (Incyte Corporation, priority 2013, dated 2018).

The target of one test is BRD4-BD1 (Homo sapiens (Human), UniProt O60885). Nature of the test: BRD4 AlphaScreen assay, BRD4-BD1. Format: binding. As to conditions: H4Ac4 peptide, 75 min, room temperature, read-out: BRD4 BD-1 enzyme IC50. The procedure, abridged: (§1)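 AlphaScreen read after 75 min dark incubation at room temperature, inhibitors serially diluted in DMSO and added before other components. IC50 from fit of percent control activity versus log inhibitor concentration.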
A general note: Alpha assays give light when donor and acceptor beads are brought close together.

For another test, the target named is BRD4-BD2 (Homo sapiens (Human), UniProt O60885). Kind of test: BRD4 AlphaScreen assay, BRD4-BD2. Format: binding. The settings on record: H4Ac4 peptide, 75 min, room temperature, read-out: BRD4 BD-2 enzyme IC50. The procedure, abridged: as §1
In a further test the test system is KMS.12.BM cells. Kind of test: KMS.12.BM cell viability assay (Cell Titer-GLO, ATP quantitation). In kind it is cell-based. As to conditions: Homo sapiens, 72 h, 3 days, concentration required for 50% cell death, read-out: KMS cellular IC50. In outline:
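Human myeloma KMS.12.BM cells, 5000 cells/well in RPMI with 10% FBS, were exposed to a compound concentration range for 3 days. Viability was read by Cell Titer-GLO ATP luminescence relative to untreated cells; IC50 is the concentration giving 50% cell death.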
For orientation: ATP-based viability assays read luminescence as a measure of living cells.

The test system of another test is C-myc. Kind of test: KMS.12.BM C-myc ELISA assay. In kind it is cell-based. The settings on record: Homo sapiens; KMS.12.BM cells, 2 hours, concentration required for 50% C-myc inhibition. In outline:
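Human myeloma KMS.12.BM cells in RPMI/10% FBS were exposed to a compound concentration range for 2 h, then lysed with protease inhibitors. C-myc in clarified lysates was measured by ELISA. IC50 is the concentration giving 50% C-myc inhibition relative to untreated cells.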
A general note: ELISA stands for enzyme-linked immunosorbent assay.

SMILES strings stand for the structures. Where only a bound is given, the exact number is not on record here.

On to `CC(=O)NCc1nc2c(Oc3ccccc3)c(-c3cn(C)c(=O)c4[nH]ccc34)ccc2o1` [Example 104, N-{[5-(6-Methyl-7-oxo-6,7-dihydro-1H-pyrrolo[2,3-c]pyridin-4-yl)-4-phenoxy-1,3-benzoxazol-2-yl]methyl}acetamide], for which the IC50 at BRD4-BD1 is < 0.1 µM; on BRD4-BD2, < 0.1 µM; with KMS.12.BM cells, ≤ 1 µM; in the test on C-myc, ≤ 1 µM.
As for `Cn1cc(-c2ccc3[nH]c(=O)[nH]c3c2Oc2ccc(F)cc2)c2cc[nH]c2c1=O` [Example 24, 4-(4-Fluorophenoxy)-5-(6-methyl-7-oxo-6,7-dihydro-1H-pyrrolo[2,3-c]pyridin-4-yl)-1,3-dihydro-2H-benzimidazol-2-one], the IC50 on BRD4-BD1 is < 0.1 µM; at BRD4-BD2 it was < 0.1 µM; with KMS.12.BM cells it was ≤ 1 µM; in the test on C-myc, ≤ 1 µM.
For `Cn1cc(-c2ccc3c(c2OCC2CCC2)n(CCC#N)c(=O)n3C)c2cc[nH]c2c1=O` [Example 62, 3-[7-(Cyclobutylmethoxy)-3-methyl-6-(6-methyl-7-oxo-6,7-dihydro-1H-pyrrolo[2,3-c]pyridin-4-yl)-2-oxo-2,3-dihydro-1H-benzimidazol-1-yl]propanenitrile], the IC50 at BRD4-BD1 is < 0.1 µM; at BRD4-BD2 it was < 0.1 µM; in the test with KMS.12.BM cells, ≤ 1 µM; in the test on C-myc it was ≤ 1 µM.
As for `Cn1cc(-c2ccc3c([nH]c(=O)n3C)c2OCc2ccccc2)c2cc[nH]c2c1=O` [Example 27, 4-(Benzyloxy)-1-methyl-5-(6-methyl-7-oxo-6,7-dihydro-1H-pyrrolo[2,3-c]pyridin-4-yl)-1,3-dihydro-2H-benzimidazol-2-one], the IC50 was 0.1 to 1 µM on BRD4-BD1, < 0.1 µM at BRD4-BD2, ≤ 1 µM in the test with KMS.12.BM cells and ≤ 1 µM with C-myc.
On to `Cn1cc(-c2ccc3c([nH]c(=O)n3C)c2Oc2ccc(F)cc2F)c2cn[nH]c2c1=O` [Example 21, 4-[4-(2,4-Difluorophenoxy)-1-methyl-2-oxo-2,3-dihydro-1H-benzimidazol-5-yl]-6-methyl-1,6-dihydro-7H-pyrazolo[3,4-c]pyridin-7-one], for which the IC50 at BRD4-BD1 is < 0.1 µM; on BRD4-BD2, < 0.1 µM; in the test with KMS.12.BM cells it was ≤ 1 µM; in the test on C-myc, ≤ 1 µM.
On to `Cn1cc(-c2ccc3oc(CN)nc3c2Oc2ccccc2)c2cc[nH]c2c1=O` [Example 103, 4-[2-(Aminomethyl)-4-phenoxy-1,3-benzoxazol-5-yl]-6-methyl-1,6-dihydro-7H-pyrrolo[2,3-c]pyridin-7-one], for which the IC50 at BRD4-BD1 was < 0.1 µM; at BRD4-BD2 it was < 0.1 µM; in the test on KMS.12.BM cells, ≤ 1 µM; in the test on C-myc, ≤ 1 µM.
`Cn1cc(-c2ccc3c(nnn3C)c2Oc2ccc(F)cc2F)c2cn[nH]c2c1=O` [Example 20, 4-[4-(2,4-Difluorophenoxy)-1-methyl-1H-1,2,3-benzotriazol-5-yl]-6-methyl-1,6-dihydro-7H-pyrazolo[3,4-c]pyridin-7-one]: the IC50 is < 0.1 µM on BRD4-BD1, < 0.1 µM at BRD4-BD2, ≤ 1 µM in the test with KMS.12.BM cells and ≤ 1 µM in the test with C-myc.
On to `Cc1nc2c(Oc3ccc(F)cc3F)c(-c3cn(C)c(=O)c4[nH]ncc34)ccc2n1C` [Example 19, 4-[4-(2,4-Difluorophenoxy)-1,2-dimethyl-1H-benzimidazol-5-yl]-6-methyl-1,6-dihydro-7H-pyrazolo[3,4-c]pyridin-7-one], for which the IC50 is < 0.1 µM at BRD4-BD1, < 0.1 µM at BRD4-BD2, ≤ 1 µM in the test on KMS.12.BM cells and ≤ 1 µM in the test with C-myc.
For `Cn1cc(-c2ccc3oc(CNC(=O)Cc4ccccc4)nc3c2Oc2ccccc2)c2cc[nH]c2c1=O` [Example 107, N-{[5-(6-Methyl-7-oxo-6,7-dihydro-1H-pyrrolo[2,3-c]pyridin-4-yl)-4-phenoxy-1,3-benzoxazol-2-yl]methyl}-2-phenylacetamide], the IC50 at BRD4-BD1 was < 0.1 µM; at BRD4-BD2, < 0.1 µM; in the test on KMS.12.BM cells, ≤ 1 µM; in the test on C-myc, ≤ 1 µM.
Take `Cn1cc(-c2ccc3c([nH]c(=O)n3C)c2OC2CCCCC2)c2cc[nH]c2c1=O` [Example 90, 4-(Cyclohexyloxy)-1-methyl-5-(6-methyl-7-oxo-6,7-dihydro-1H-pyrrolo[2,3-c]pyridin-4-yl)-1,3-dihydro-2H-benzimidazol-2-one]: the IC50 is < 0.1 µM at BRD4-BD1, < 0.1 µM on BRD4-BD2, ≤ 1 µM with KMS.12.BM cells and ≤ 1 µM in the test on C-myc.
On to `Cn1cc(-c2ccc3c(c2Oc2ccc(F)cc2F)n(C)c(=O)n3C)c2cc[nH]c2c1=O` [Example 7, 4-(2,4-Difluorophenoxy)-1,3-dimethyl-5-(6-methyl-7-oxo-6,7-dihydro-1H-pyrrolo[2,3-c]pyridin-4-yl)-1,3-dihydro-2H-benzimidazol-2-one], for which the IC50 on BRD4-BD1 is < 0.1 µM; on BRD4-BD2 it was < 0.1 µM; with KMS.12.BM cells, ≤ 1 µM; with C-myc, 1 to 10 µM.
With `Cn1cc(-c2ccc3c(ncn3C)c2Oc2ccccc2)c2cc[nH]c2c1=O` [Example 56, 6-Methyl-4-(1-methyl-4-phenoxy-1H-benzimidazol-5-yl)-1,6-dihydro-7H-pyrrolo[2,3-c]pyridin-7-one], the IC50 at BRD4-BD1 was < 0.1 µM; at BRD4-BD2 it was < 0.1 µM; with KMS.12.BM cells it was ≤ 1 µM; in the test on C-myc, ≤ 1 µM.
Regarding `Cn1cc(-c2ccc3ncn(CCc4ccccc4)c3c2Oc2ccccc2)c2cc[nH]c2c1=O` [Example 47, 6-Methyl-4-[7-phenoxy-1-(2-phenylethyl)-1H-benzimidazol-6-yl]-1,6-dihydro-7H-pyrrolo[2,3-c]pyridin-7-one], the IC50 was < 0.1 µM at BRD4-BD1, < 0.1 µM at BRD4-BD2, ≤ 1 µM with KMS.12.BM cells and ≤ 1 µM in the test with C-myc.
Take `Cn1cc(-c2ccc3c(ncn3C)c2Oc2cccc(F)c2)c2cc[nH]c2c1=O` [Example 58, 4-[4-(3-Fluorophenoxy)-1-methyl-1H-benzimidazol-5-yl]-6-methyl-1,6-dihydro-7H-pyrrolo[2,3-c]pyridin-7-one]: the IC50 on BRD4-BD1 was < 0.1 µM; at BRD4-BD2, < 0.1 µM; in the test on KMS.12.BM cells it was ≤ 1 µM; in the test on C-myc it was ≤ 1 µM.
In the case of `Cn1cc(-c2ccc3c(ncn3C)c2Oc2ccccc2F)c2cc[nH]c2c1=O` [Example 57, 4-[4-(2-Fluorophenoxy)-1-methyl-1H-benzimidazol-5-yl]-6-methyl-1,6-dihydro-7H-pyrrolo[2,3-c]pyridin-7-one], the IC50 on BRD4-BD1 was < 0.1 µM; at BRD4-BD2 it was < 0.1 µM; with KMS.12.BM cells it was ≤ 1 µM; in the test on C-myc it was ≤ 1 µM.
Regarding `CC(=O)N1CCN(CCn2c(=O)n(C)c3ccc(-c4cn(C)c(=O)c5[nH]ccc45)c(OCC4CCC4)c32)CC1` [Example 66, 3-(2-(4-Acetylpiperazin-1-yl)ethyl)-4-(cyclobutylmethoxy)-1-methyl-5-(6-methyl-7-oxo-6,7-dihydro-1H-pyrrolo[2,3-c]pyridin-4-yl)-1H-benzo[d]imidazol-2(3H)-one], the IC50 is < 0.1 µM on BRD4-BD1, < 0.1 µM on BRD4-BD2, ≤ 1 µM with KMS.12.BM cells and ≤ 1 µM in the test with C-myc.
Take `Cn1cc(-c2ccc3c([nH]c(=O)n3C)c2Oc2ccc(F)cc2)c2cc[nH]c2c1=O` [Example 41, 4-(4-Fluorophenoxy)-1-methyl-5-(6-methyl-7-oxo-6,7-dihydro-1H-pyrrolo[2,3-c]pyridin-4-yl)-1,3-dihydro-2H-benzimidazol-2-one]: the IC50 on BRD4-BD1 was < 0.1 µM; on BRD4-BD2 it was < 0.1 µM; with KMS.12.BM cells it was ≤ 1 µM; in the test on C-myc, ≤ 1 µM.
On to `Cn1cc(-c2ccc3[nH]c(=O)[nH]c3c2Oc2ccc(F)cc2F)c2cc[nH]c2c1=O` [Example 1, 4-(2,4-Difluorophenoxy)-5-(6-methyl-7-oxo-6,7-dihydro-1H-pyrrolo[2,3-c]pyridin-4-yl)-1,3-dihydro-2H-benzimidazol-2-one], for which the half-maximal inhibitory concentration (IC50) on BRD4-BD1 is < 0.1 µM; on BRD4-BD2 it was < 0.1 µM; in the test on KMS.12.BM cells, ≤ 1 µM; with C-myc, ≤ 1 µM.
In the case of `Cn1cc(-c2ccc3oc(CNS(C)(=O)=O)nc3c2Oc2ccccc2)c2cc[nH]c2c1=O` [Example 105, N-{[5-(6-Methyl-7-oxo-6,7-dihydro-1H-pyrrolo[2,3-c]pyridin-4-yl)-4-phenoxy-1,3-benzoxazol-2-yl]methyl}methanesulfonamide], the IC50 on BRD4-BD1 was < 0.1 µM; on BRD4-BD2, < 0.1 µM; in the test on KMS.12.BM cells, ≤ 1 µM; in the test on C-myc, ≤ 1 µM.
As for `Cn1cc(-c2ccc3c([nH]c(=O)n3C)c2OCC2CCC2)c2cc[nH]c2c1=O` [Example 37, 4-(Cyclobutylmethoxy)-1-methyl-5-(6-methyl-7-oxo-6,7-dihydro-1H-pyrrolo[2,3-c]pyridin-4-yl)-1,3-dihydro-2H-benzimidazol-2-one], the IC50 is < 0.1 µM at BRD4-BD1, < 0.1 µM at BRD4-BD2, ≤ 1 µM with KMS.12.BM cells and ≤ 1 µM with C-myc.
`Cn1cc(-c2ccc3c(ncn3C)c2Oc2ccc(F)cc2)c2cc[nH]c2c1=O` [Example 59, 4-[4-(4-Fluorophenoxy)-1-methyl-1H-benzimidazol-5-yl]-6-methyl-1,6-dihydro-7H-pyrrolo[2,3-c]pyridin-7-one]: the IC50 at BRD4-BD1 is < 0.1 µM; at BRD4-BD2, < 0.1 µM; in the test with KMS.12.BM cells, ≤ 1 µM; in the test on C-myc, ≤ 1 µM.

In general, IC50 refers to the concentration needed to halve the response being measured.
